This is an account of results in patent publication US8501955B2, “Acetamide derivatives as glucokinase activators, their process and medicinal application” (Advinus Therapeutics Private Limited, priority 2007, dated 2013).

The target of data set [1] is T1, purified human recombinant GK (Homo sapiens, UniProt P35557).
T1 sequence (P35557 1-465): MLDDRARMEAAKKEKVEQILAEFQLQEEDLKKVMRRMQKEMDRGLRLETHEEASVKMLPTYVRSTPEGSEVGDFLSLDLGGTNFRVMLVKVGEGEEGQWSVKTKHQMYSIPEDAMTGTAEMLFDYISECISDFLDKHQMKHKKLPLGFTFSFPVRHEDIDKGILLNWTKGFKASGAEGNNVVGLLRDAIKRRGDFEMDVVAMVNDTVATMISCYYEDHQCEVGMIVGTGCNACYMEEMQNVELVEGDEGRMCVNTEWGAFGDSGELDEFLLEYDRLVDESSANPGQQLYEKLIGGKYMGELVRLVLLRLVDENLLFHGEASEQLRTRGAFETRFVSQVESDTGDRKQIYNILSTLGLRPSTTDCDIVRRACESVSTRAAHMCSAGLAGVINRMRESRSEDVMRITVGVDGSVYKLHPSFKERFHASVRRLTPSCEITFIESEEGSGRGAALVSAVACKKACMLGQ
The data set can be described thus: Glucokinase activity assay (coupled enzymatic GK/G6PD assay, NADH absorbance at 340 nm). It counts as biochemical. As to conditions: for EC50: EC50 of % change in S0.5 of glucokinase for glucose, sigmoidal fit, read-out: EC50 (with respect to % ΔS0.5); for Emax: Emax of % change in S0.5, vehicle S0.5 = 0%, 0 mM glucose = 100%, read-out: % Emax (with respect to % ΔS0.5). The text has this:
The glucokinase (GK) assay is a coupled enzymatic assay. GK catalyzes the first step of glycolysis, the conversion of glucose to glucose-6-phosphate (G6P) in the presence of ATP. G6P in turn is converted by glucose-6-phosphate dehydrogenase (G6PD) to 6-phosphogluconate, a process that requires NAD, resulting in NADH formation. Since the GK-catalyzed step is the rate-limiting step of this coupled enzymatic process, the rate of accumulation of 6-phosphogluconate and NADH is directly proportional to the rate of glucose phosphorylation by GK. The rate of the GK-catalyzed reaction can therefore be measured by monitoring the increase in NADH absorbance at 340 nm.
The assay is carried out according to the protocol outlined in Hariharan et al (1997), Diabetes 46: 11-16. Briefly, the test compounds are incubated in a reaction mix containing 25 mM HEPES (pH 7.2), 10 mM MgCl2, 100 mM KCl, 5 mM ATP, 2 mM DTT, 0.5 mM NAD, 1 U/ml Leuconostoc mesenteroides G6PD, 0.3 U/ml of purified human recombinant GK, and different concentrations of glucose. Enzymatic activity is calculated from the initial reaction velocity, measured from the change in NADH absorbance as a function of time.
Compounds described in formula (I), in concentration ranges from 1.0 nM to […] are tested in the purified human recombinant glucokinase assay described above.
A compound is considered to be a glucokinase activator if it, in its testable range of concentrations, yields a higher rate of glucose phosphorylation than in its absence at a particular glucose concentration, for example at 5 mM glucose.
Compounds of general formula (I) are tested in the in vitro GK enzymatic assay to monitor dose-dependent effect on glucokinase activation (in kinetic mode), as described above, at various glucose concentrations. The S0.5 of glucokinase for glucose at different concentration of each compound of interest is calculated from the following modified version of the Michaelis-Menten equation, V=Vmax[S]^n/(S0.5^n+[S]^n), where [S] is the glucose concentration and n is the Hill coefficient (taken as 1.7 to account for the sigmoidal kinetics of glucokinase with respect to glucose). The S0.5 is plotted against the log of the compound concentration. The change in the S0.5 of glucokinase (ΔS0.5) for glucose is calculated by subtracting the S0.5 at each concentration of the compound from the S0.5 in the vehicle control. The ΔS0.5 is then normalized to a percent scale, where the S0.5 in the vehicle control is set to 0% and 0 mM glucose is set to 100%. The % ΔS0.5 is then plotted against the log of the compound concentration. The EC50 and Emax of % change in S0.5 is obtained from the sigmoidal fit of the data. Detailed protocol has been described in our copending application no. WO 2008/104994 which is incorporated herein by reference. Characterization data of some representative glucokinase activators of the present disclosure, which are illustrative but not limiting, are given in table 1 below.

A further data set concerns primary rat hepatocytes. In words: Measurement of glycogen synthesis in primary rat hepatocytes. It counts as cell-based. As to conditions: Rattus norvegicus, Hepatocyte, 3 h, 10 μM compound, 10 mM glucose, fold increase over DMSO control. As to the method:
Primary hepatocytes are collected from male Wistar rats, and tested for viability by trypan blue exclusion. Primary hepatocytes cultures with viability greater than 95% are selected for the glycogen synthesis assay. The cells are seeded in a 48-well plate at a density of 200,000 cells/well in 250 μl Minimal Essential Medium (MEM) containing 10% foetal calf serum (FCS) and 1.7 μM insulin, and incubated for 4 hours at 37° C. to allow attachment. The medium is replaced with fresh MEM containing 10% FCS, 1.7 μM insulin and 10 nM dexamethasone, and the cells are incubated for 16 hours at 37° C. The medium is then replaced with fresh MEM (serum-free) containing 2 μCi/ml of D-[U^14C]-Glucose along with 10 μM of the compound in a final DMSO concentration of 0.1%. The final glucose concentration is brought to 10 mM by the addition of D-Glucose (MEM already contains 5 mM glucose). The cells are incubated for 3 hours at 37° C. The cells are washed twice with 150 mM NaCl, lysed with 0.1 N NaOH, and the lysate precipitated with 8% w/v trichloroacetic acid (TCA) and 1 mg/well unlabeled glycogen as carrier. Cell debris is pelleted by centrifugation, the supernatant is removed, and the glycogen is precipitated with 63% ethanol. After another round of centrifugation, the supernatant is removed, and the pellet containing the precipitated glycogen is dried overnight. De novo synthesized glycogen is estimated in a scintillation counter (MicroBeta Trilux, Perkin Elmer), and expressed as fold increase over DMSO control.
The protocol for the glycogen assay is based on the method described in “Biochem J. 1990 Feb. 15; 266(1): 91-102” with a few minor modifications. The protocol for isolation of primary rat hepatocytes is based on the method described in “Methods in Enzymology, Vol. III. pp 34-50. Ed. by S. P. Colowick and N. O. Kaplan. New York, Academic Press, 1957” with a few minor modifications.
Compounds described in formula (I), in concentration ranges from 1.0 nM to 500 μM, are tested in glycogen synthesis assay described above.

For data set [2] the following is noted: Kamata et al (2004) Structure 12: 429-438; cited from earlier work.

Consider `O=C(O)Cc1nc(NC(=O)C(Oc2ccc(F)cc2F)c2ccc(S(=O)(=O)C3CC3)cc2)sc1Cl` (single isomer, unassigned; (-)) [Example E1, (−)-{5-Chloro-2-[2-(4-cyclopropanesulfonyl-phenyl)-2-(2,4-difluorophenoxy)acetyl-amino]thiazol-4-yl}acetic acid], for which, in data set [1], the EC50 was determined as 1.55 µM and the Emax came to 95%. For the same compound, in the data set on primary rat hepatocytes, the fold induction at 10 µM was determined as 8.1.

As for `O=C(O)Cc1nc(NC(=O)C(Oc2ccc(F)cc2F)c2ccc(S(=O)(=O)C3CCCC3)cc2)sc1Cl` (single isomer, unassigned; (-)) [Example E2, (−)-{5-Chloro-2-[2-(4-cyclopentanesulfonyl-phenyl)-2-(2,4-difluorophenoxy)acetyl-amino]thiazol-4-yl}-acetic acid], in data set [1], the EC50 came to 0.37 µM and the Emax was determined as 95%. The fold induction at 10 µM with primary rat hepatocytes worked out at 8.8.

`O=C(O)Cc1csc(NC(=O)C(Oc2ccc(F)cc2F)c2ccc(S(=O)(=O)C3CC3)cc2)n1` (single isomer, unassigned; (-)) [Example E3, (−){2-[2-(4-Cyclopropanesulfonylphenyl)-2-(2,4-difluorophenoxy)acetylamino]-thiazol-4-yl}acetic acid]: in data set [1], the EC50 was found to be 2.37 µM and the Emax turned out to be 90%. This compound yielded a fold induction at 10 µM in the data set with primary rat hepatocytes of 9.5.

For the compound `O=C(Nc1nc2cccnc2s1)C(OC1CCOCC1)c1ccc(S(=O)(=O)C2CC2)cc1` (single isomer, unassigned; (-)) [Example H10A, (−)2-(4-Cyclopropanesulfonyl-phenyl)-2-(tetrahydro-pyran-4-yloxy)-N-thiazolo[5,4-b]pyridin-2-yl-acetamide], in data set [1], the EC50 was found to be 0.15 µM and the Emax came out at 94%. In the data set with primary rat hepatocytes, this compound displayed a fold induction at 10 µM of 4.1.

As to `O=C(Nc1ncc(F)s1)C(Oc1ccc(F)cc1F)c1ccc(S(=O)(=O)C2CC2)cc1` (centres unmarked) [Example A3, 2-(4-Cyclopropanesulfonylphenyl)-2-(2,4-difluorophenoxy)-N-(5-fluorothiazol-2-yl)-acetamide], in data set [1], the EC50 came out at 0.2 µM and the Emax worked out at 95%. This compound came in with a fold induction at 10 µM with primary rat hepatocytes of 2.9.

Turning to `O=C(Nc1nccs1)C(Oc1ccc(F)cc1F)c1ccc(S(=O)(=O)C2CCCC2)cc1` (centres unmarked) [Example A10, 2-(4-Cyclopentanesulfonylphenyl)-2-(2,4-difluorophenoxy)-N-thiazol-2-yl-acetamide], in data set [1], the EC50 is 0.11 µM and the Emax came out at 95%. Moreover, the fold induction at 10 µM with primary rat hepatocytes is 4.3.

Take `COc1cnc(NC(=O)C(Oc2ccc(F)cc2F)c2ccc(S(=O)(=O)C3CC3)cc2)s1` (centres unmarked) [Example A75, 2-(4-Cyclopropanesulfonyl-phenyl)-2-(2,4-difluoro-phenoxy)-N-(5-methoxy-thiazol-2-yl)-acetamide]: in data set [1], the EC50 is 0.076 µM and the Emax was determined as 93%. Further, the fold induction at 10 µM in the data set with primary rat hepatocytes stood at 7.1.

`O=C(O)Cc1csc(NC(=O)C(Oc2ccc(F)cc2)c2ccc(S(=O)(=O)C3CC3)cc2)n1` (centres unmarked) [Example B1, {2-[2-(4-Cyclopropanesulfonylphenyl)-2-(4-fluorophenoxy)acetylamino]thiazol-4-yl}acetic acid] had a melting point of 72 to 73 °C.

For the compound `O=C(O)Cc1nc(NC(=O)C(Oc2ccc(Cl)cc2)c2ccc(S(=O)(=O)C3CC3)cc2)sc1Cl` (centres unmarked) [Example B6, {5-Chloro-2-[2-(4-chlorophenoxy)-2-(4-cyclopropanesulfonylphenyl)-acetylamino]-thiazol-4-yl}acetic acid], in data set [1], the EC50 was 0.83 µM and the Emax came to 90%. Moreover, the fold induction at 10 µM with primary rat hepatocytes is 8.6.

For `O=C(O)Cc1csc(NC(=O)C(Oc2ccc(F)cc2F)c2ccc(S(=O)(=O)C3CCCCC3)cc2)n1` (centres unmarked) [Example B16, {2-[2-(4-Cyclohexanesulfonylphenyl)-2-(2,4-difluorophenoxy)acetylamino]-thiazol-4-yl}acetic acid], in data set [1], the concentration for a half-maximal effect (EC50) stood at 1 µM and the Emax amounted to 90%. Further, in the data set on primary rat hepatocytes, the fold induction at 10 µM amounted to 5.5.

`O=C(O)Cc1nc(NC(=O)C(Oc2ccc3[nH]ccc3c2)c2ccc(S(=O)(=O)C3CC3)cc2)sc1Cl` (centres unmarked) [Example B19, {5-Chloro-2-[2-(4-cyclopropanesulfonylphenyl)-2-(1H-indol-5-yloxy)acetylamino]thiazol-4-yl}acetic acid]: in data set [1], the EC50 worked out at 3.3 µM and the Emax stood at 95%. In addition, in the data set with primary rat hepatocytes, the fold induction at 10 µM is 3.3.

As to `CC(=O)Nc1cccc(OC(C(=O)Nc2nc(CC(=O)O)c(Cl)s2)c2ccc(S(=O)(=O)C3CC3)cc2)c1` (centres unmarked) [Example B20, {2-[2-(3-Acetylaminophenoxy)-2-(4-cyclopropanesulfonylphenyl)acetylamino]-5-chloro-thiazol-4-yl}acetic acid], in data set [1], the EC50 worked out at 6.8 µM and the Emax was found to be 90%. This compound registered a fold induction at 10 µM in the data set with primary rat hepatocytes of 6.8.

Take `O=C(O)c1cccc(Oc2cnc(NC(=O)C(OC3CCOCC3)c3ccc(S(=O)(=O)C4CC4)cc3)s2)c1` (centres unmarked) [Example B92, 3-{2-[2-(4-Cyclopropanesulfonyl-phenyl)-2-(tetrahydro-pyran-4-yloxy)-acetylamino]-thiazol-5-yloxy}-benzoic acid]: in data set [1], the EC50 worked out at 0.17 µM and the Emax turned out to be 91%. Also, in the data set on primary rat hepatocytes, the fold induction at 10 µM was determined as 7.8.

`O=C(Nc1ncc(Oc2ccc(C(=O)N3CCC3)cc2)s1)C(OC1CCOCC1)c1ccc(S(=O)(=O)C2CC2)cc1` (centres unmarked) [Example G6]: in data set [1], the EC50 came to 0.11 µM and the Emax came to 90%. For the same compound, the fold induction at 10 µM in the data set on primary rat hepatocytes was 6.2.

Consider Ro-28-1675, for which the “hypoglycemia in animal efficacy models” value in data set [2] is given as “cause hypoglycemia”.
